This note sets out measurements from patent US20250003877A1, “Silyl Bridged Dyes” (priority 2021, published 2025).

For data set [1], the target named is T1, SNAP-tag (pSNAPf-H2B) in HeLa cells (Homo sapiens, UniProt P16455, A127T/A154D/C150Q/C62A/E30R/G131K/G132T/G153L/K125A/K32I/L33F/M134L/N157G/Q115S/Q116H/R128A/R135S/S151G/S152D/S159E).
T1 construct: host or cells: HeLa cells, transient transfection with Lipofectamine 2000
T1 sequence (P16455 1-182 E30R/K32I/L33F/C62A/Q115S/Q116H/K125A/A127T/R128A/G131K/G132T/M134L/R135S/C150Q/S151G/S152D/G153L/A154D/N157G/S159E limits assumed): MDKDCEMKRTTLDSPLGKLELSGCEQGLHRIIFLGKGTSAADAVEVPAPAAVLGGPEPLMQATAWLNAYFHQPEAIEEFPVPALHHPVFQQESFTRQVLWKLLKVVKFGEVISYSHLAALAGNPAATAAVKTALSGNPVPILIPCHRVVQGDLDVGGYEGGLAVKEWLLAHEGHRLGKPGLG
The data set is described as follows: Live cell imaging of SNAP-tag-expressing cells with Si-bridge dyes. In kind it is cell-based. The note with it: 3 μM dye, 30 min, 37° C., washed, HeLa transfected with pSNAPf-H2B. Here is the method: HeLa cells were seeded in 35 mm glass bottom dishes (Cellvis, catalog no. D35-28-O-N), and transfected with […] control plasmid (Addgene #101124). Transient transfections were performed using Lipofectamine 2000 (Invitrogen, catalog no. 1168019) following the manufacturer's instructions. HeLa cell labeling and confocal imaging were performed 24 hr after transfection. Labeling with SNAP-Cell® 647 SiR (New England Biolabs, catalog no. […]) and new dyes 065 and 066 containing benzylguanine SNAP-tag ligands were performed following the manufacturer's instructions. SNAP-tag is another popular system for labeling fusion proteins. SNAP-tag is more promiscuous towards its substrates than HaloTag, and thus it was anticipated that the relative fluorogenic behavior for each Si-bridge dye isomer would differ from the stark facial selectivity results seen above with Hoechst probes and HaloTag. Briefly, cells were incubated with 3 μM dye in cell culture medium for 30 min at 37° C. The cells were then washed three times with tissue culture medium and incubated in fresh medium for 30 minutes. The medium was replaced one more time to remove unreacted […] before imaging. […] Dyes fluorescing in the Cy5 channel were excited with the HeNe (633 nm) laser at a 15% intensity and detected through a 640-615 band pass filter and […] pinhole. […]

The format of data set [2] is physicochemical. The text has this:
Strain-promoted lowering of the Si σ* energy in cyclic silanes is another approach to red-shift emission. Treatment of 1-1 with cyclohexyl dichlorosilane yielded the expected Si-rhodamine dye (Scheme 1A). However, the reactions with the corresponding five and four-membered ring analogs yielded many side products. The cyclopentyl analog 028 was obtained in good yield through an alternate synthetic pathway (Scheme 4), but the four-membered ring analog could not be isolated by either route. The silacyclopentyl analog is red-shifted compared to 001 and compound 014, consistent with a strain-induced LUMO-lowering effect (Table 3).
Scheme 10. Instability of silacyclopentyl dye 028 in solution. Proposed ring-opened product in methanol (the solvent used for HRMS analysis).

Data set [3] has as its system nucleus in live HeLa cells. The experiment in a line: No-wash live cell imaging of the nucleus with a Si-bridge dye. It counts as cell-based. The note with it: confocal, Cy5 channel. Here is the method:
HeLa cells were cultured in Dulbecco's modified Eagle medium (DMEM, from GIBCO, catalog no. 11995065) supplemented with 10% fetal bovine serum (FBS) (GIBCO, catalog no. 10437028) and 1% penicillin-streptomycin (Sigma) at 37° C. in a 5% CO2 incubator. For imaging, cells were seeded in 35 mm glass bottom dishes (Cellvis, catalog no. D35-28-O—N). […] Dyes fluorescing in the Cy5 channel were excited with the HeNe (633 nm) laser at a 15% intensity and detected through a 640-615 band pass filter, and EGFP was excited with the Argon (488 nm) laser. Image analysis was performed using Leica LAS X SP8 software and ImageJ software.

Data set [4] deals with hairpin DNA oligonucleotide (hpDNA). The data set is described as follows: Photophysical properties after 2 h treatment with hairpin DNA (hpDNA). It counts as physicochemical. The following applies: for Brightness (ε × ϕ) / ε (M^−1 cm^−1) / λem (nm) / λex (nm) / ϕ: +30 μM hpDNA, 2 h; for brightness: in the presence of 30 μM hpDNA. Here is the method: Absorption and fluorescence spectra were measured on a Horiba Duetta fluorescence and absorbance spectrometer in quartz cuvettes (Starna Cells, catalog #3-Q-10). Extinction coefficients were calculated from plots of absorption versus concentration. Quantum yields were measured on a Hamamatsu Quantaurus QY C-11347-11 absolute quantum yield integrating sphere spectrometer at absorption values of <0.1 in side-arm quartz cuvettes (Hamamatsu cat #A10095-02). All measurements were performed in PBS (9.0 g/l NaCl, 0.795 g/l Na2HPO4, 0.144 g/l KH2PO4, pH 7.4, Corning cat #21-040-CV), ethanol, or 0.1% TFA/ethanol and prepared from stock solutions of dyes in DMSO, with final DMSO <1%. […] Selected KLZ values were determined in 1:1 v/v dioxane:water as previously described.
Spirolactonizable Si-rhodamines are particularly valuable for live cell imaging. They typically exist in a nonfluorescent, neutral cell-permeable form that can convert to a highly fluorescent form when bound to particular targets, such as DNA or the protein HaloTag®. This fluorogenic response occurs when the nonfluorescent spirolactone ring opens, generating a zwitterionic dye (Scheme 12). To date, all examples of fluorogenic Si-rhodamine dyes have been modified with targeting groups directly on the pendant phenyl ring that forms the spirolactone. It is not obvious whether this same fluorogenic behavior would also occur with dyes that are modified with targeting groups on the more distal silyl group. SiR-DNA (Spirochrome) is a commercially-available Si-rhodamine dye with the DNA-targeting ligand Hoechst 33258 attached to the pendant phenyl ring (Schemes 13A-C), allowing specific labeling of the nucleus in live cells. Therefore, two Hoechst 33258-modified Si-Bridge isomers were synthesized via direct reaction of the phenol of Hoechst 33258 with the isomeric Si-iodopropyl dyes compounds 047 and 048 (Scheme 6), and then assessed their ability to label the nucleus in live HeLa cells compared to SiR-DNA (FIGS. 2A-2C). […] To gain more insight into the molecular basis for this difference, the photophysical properties of compounds 061 and 062 were evaluated in vitro in the presence and absence of a hairpin DNA oligonucleotide (hpDNA) (Table 4). Like SiR-DNA, these dyes are quenched and virtually nonfluorescent in PBS, with quantum yields <0.02 and brightness of <130 M^−1 cm^−1.

Where two headings read alike, the source gives them in different places.

Take `CN(C)c1ccc2c(c1)[Si@](C)(CCCSCC(=O)NCc1ccc(COc3nc(N)nc4[nH]cnc34)cc1)c1cc(N(C)C)ccc1[C@@]21OC(=O)c2ccccc21` [Compound 066, N-(4-(((2-Amino-9H-purin-6-yl)oxy)methyl)benzyl)-2-((3-((5r,10r)-3,7-bis(dimethylamino)-5-methyl-3′-oxo-3′H,5H-spiro[dibenzo[b,e]siline-10,1′-isobenzofuran]-5-yl)propyl)thio)acetamide]: the “labeling of SNAP-tag” value in data set [1] is given as “labeled SNAP-tag”.
In the case of `Cc1ccccc1C1=C2C=CC(=[N+](C)C)C=C2[Si]2(CCCC2)c2cc(N(C)C)ccc21` [Compound 028, N-(7-(Dimethylamino)-10-(o-tolyl)-3H-spiro[dibenzo[b,e]siline-5,1′-silolan]-3-ylidene)-N-methylmethanaminium], in data set [2], the “chemical stability in solution” value is listed as “chemically unstable in solution”. Also, under “PBS”, the “Brightness (ϕ × ε)” value is 54,826, the “Em (nm)” value is recorded as 671 nm, the “Ex (nm)” value stood at 653 nm and the “ε (M^−1 cm^−1)” value was 158,000 M^−1 cm^−1. Further, the “ϕ (quantum yield)” value (PBS, pH 7.4) was determined as 0.35.
On to `CN(C)c1ccc2c(c1)[Si@](C)(CCCSCC(=O)NCc1ccc(COc3nc(N)nc4[nH]cnc34)cc1)c1cc(N(C)C)ccc1[C@]21OC(=O)c2ccccc21` [Compound 065, N-(4-(((2-Amino-9H-purin-6-yl)oxy)methyl)benzyl)-2-((3-((5s,10s)-3,7-bis(dimethylamino)-5-methyl-3′-oxo-3′H,5H-spiro[dibenzo[b,e]siline-10,1′-isobenzofuran]-5-yl)propyl)thio)acetamide], for which the “labeling of SNAP-tag” value in data set [1] is reported as “labeled SNAP-tag”.
Consider `CN1CCN(c2ccc3[nH]c(-c4ccc5[nH]c(-c6ccc(OCCC[Si@]7(C)c8cc(N(C)C)ccc8[C@@]8(OC(=O)c9ccccc98)c8ccc(N(C)C)cc87)cc6)nc5c4)nc3c2)CC1` [Compound 062, (5r,10r)-3,7-Bis(dimethylamino)-5-methyl-5-(3-(4-(5-(4-methylpiperazin-1-yl)-1H,1′H-[2,5′-bibenzo[d]imidazol]-2′-yl)phenoxy)propyl)-3′H,5H-spiro[dibenzo[b,e]siline-10,1′-isobenzofuran]-3′-one], for which, in data set [3], the “labeling of the nucleus in live HeLa cells” value is “highly fluorogenic, labeling only the nucleus in live cells”. Where the note is “0.1% SDS/PBS, 2 h incubation”, the “Brightness (ε × ϕ)” value is reported as 64,770, the “ε (M^−1 cm^−1)” value was 127,000 M^−1cm^−1, the “λem (nm)” value is recorded as 670 nm and the “λex (nm)” value is recorded as 649 nm. For the same compound, under “0.1% SDS/PBS, 2 h incubation”, the ϕ came out at 0.51. Besides, where the note is “Hoechst probe in PBS”, the “Brightness (ε × ϕ)” value came out at 90, the “ε (M^−1 cm^−1)” value is recorded as 10,000 M^−1cm^−1 and the “λex (nm)” value was 663 nm. Further, in data set [4], the “Brightness (ε × ϕ)” value is 10,400, the “ε (M^−1 cm^−1)” value is given as 26,000 M^−1cm^−1, the “λem (nm)” value amounted to 670 nm and the “λex (nm)” value amounted to 653 nm. In data set [4], the ϕ came to 0.40 and the brightness was 10 400 M^−1 cm^−1. Also, in data set [4] (in the presence of 30 mM hpDNA), the extinction coefficient is 26 000 M^−1 cm^−1 and the quantum yield was 0.40.
Consider `CN1CCN(c2ccc3[nH]c(-c4ccc5[nH]c(-c6ccc(OCCC[Si@]7(C)c8cc(N(C)C)ccc8[C@]8(OC(=O)c9ccccc98)c8ccc(N(C)C)cc87)cc6)nc5c4)nc3c2)CC1` [Compound 061, (5s,10s)-3,7-Bis(dimethylamino)-5-methyl-5-(3-(4-(5-(4-methylpiperazin-1-yl)-1H,1′H-[2,5′-bibenzo[d]imidazol]-2′-yl)phenoxy)propyl)-3′H,5H-spiro[dibenzo[b,e]siline-10,1′-isobenzofuran]-3′-one], for which the “labeling of the nucleus in live HeLa cells” value in data set [3] is reported as “no labeling of the nucleus”. Moreover, where the note is “0.1% SDS/PBS, 2 h incubation”, the “Brightness (ε × ϕ)” value is listed as 10,965, the “ε (M^−1 cm^−1)” value is given as 25,500 M^−1cm^−1, the “λem (nm)” value came out at 668 nm and the “λex (nm)” value came to 650 nm. This compound yielded a ϕ (0.1% SDS/PBS, 2 h incubation) of 0.43. For the setting “Hoechst probe in PBS”, the “Brightness (ε × ϕ)” value worked out at 130, the “ε (M^−1 cm^−1)” value was 6,500 M^−1cm^−1, the “λex (nm)” value is given as 660 nm and the ϕ was 0.02. Besides, in data set [4], the “Brightness (ε × ϕ)” value was 550, the “ε (M^−1 cm^−1)” value is recorded as 5,500 M^−1cm^−1, the “λem (nm)” value was 672 nm and the “λex (nm)” value was 658 nm. Moreover, in data set [4], the ϕ was 0.10 and the brightness was found to be 550 M⁻¹ cm⁻¹.
